Tests used:
[1] = system: human placental GnRH receptor; test: Placental GnRH receptor binding, 125I-Buserelin label
Description: The newly synthesized non-mammalian GnRH analogs and other commercially available mammalian GnRH analogs were used in placental receptors binding and enzyme stability study described here. […] GnRH receptors were purified from the membrane fractions from placentas. The purification procedure for the placental GnRH receptor was performed using a modification of the method described by Bramley et al., which reference is specifically incorporated herein by reference for the purpose. Addition of enzyme inhibitors for the endogenous C-ase-1 were used as well as agents for receptor stabilization. Initially, receptor-binding assays using ^125I-Buserelin as label were performed. The competitive binding of each of the analogs was studied over a dose range of 10^−11 to 10^−6 M. Incubation was at room temperature and receptor bound label was precipitated with polyethylene glycol. Specific and non-specific binding was determined. The data was subjected to Scatchard analysis. The non-mammalian GnRH analogs' ability to bind to the placental GnRH receptor was compared to that for synthetic mammalian GnRH (SEQ ID NO: 5), Buserelin (SEQ ID NO: 10) and other mammalian analogs. […] This way, the receptor affinity for that analog could be precisely determined. Receptors from three different term placentas were used to study each of these analogs. […] Bramley T A, McPhie C A, Menzies G S 1994 Human placental gonadotropin-releasing hormone (GnRH) binding sites: 111. […] Placenta 15:733-745.
In these and additional studies, placental GnRH receptors were purified from human term placentas after homogenization in 40 mM Tris (pH 7.4) and filtered through cheesecloth, followed by an initial centrifugation at 1,000×g for 10 minutes. The resulting supernatant was, again, centrifuged at 35,000×g for 30 minutes and the membrane pellet was collected and resuspended in Tris buffer with 0.3 M sucrose. The protein concentration was determined. Membranes were stored frozen at −20 C until use. Before use, placental membranes were diluted to 5,000 μg/mL with Tris buffer containing 0.5% BSA and 50 U/mL bacitracin. […] Following incubation at room temperature for 4 hours, the bound and free hormones were separated using polyethylene glycol precipitation, followed by centrifugation. The binding affinity for each GnRH isoform or analog was calculated using the double reciprocal plot of bound versus free ligand. Each study was done using three different human term placental tissues.
Receptor assays were performed by incubating human term placental GnRH receptors with varying concentrations of GnRH or its analogs in the presence of ^125I-Buserelin. The reaction was stopped and the bound hormone precipitated with polyethylene glycol.

[2] = system: early human placental explants; test: Placental explant perifusion, hCG release; format: cell-based
Text: Placental tissues that are normally discarded were obtained from unidentified patients following first trimester pregnancy termination (early human placental explants). Tissue fragments, dissected of vessels and membranes, were placed in a perfusion system for study of 20 replicate chambers of the same tissue. This allows for simultaneous dose-response studies to be performed. To achieve this specific aim, explants from a given placenta were placed in 20 replicate chambers and perfused with basal medium for three hours at a rate of 6 ml/hr (dead volume of the system at 6 ml/hr is ten minutes). After three hours of equilibration, the analog was added to the basal perfusing medium. Quaduplicate chambers were made for chicken II GnRH analog (SEQ ID NO: 2) at 0, 10^−9, 10^−8, 10^−7, 10^−6 M and Buserelin (SEQ ID NO: 10) at 10^−7 M. The effluent medium of each chamber was collected after a three hour equilibration period. Two basal samples, at half hour intervals were collected, media with test substances was initiated and effluent medium collection continued for four and one half hours at thirty minute intervals. The hCG release was analyzed in each of these experiments. FIGS. 16 and 17 illustrate a typical response. […] Maximal response was observed within minutes after initiation of perfusion at 10^−8 M, with possible down regulation beginning after five hours at 10^−6 M as illustrated in FIG. 18.
In additional experiments, early gestation human placentas were perfused for six hours with medium supplemented with estradiol, progesterone, bovine serum albumin, and antibiotics (basal medium). Twenty replicate chambers were perifused with basal medium for two hours, then triplicate chambers were perifused with the medium containing either Buserelin (SEQ ID NO: 10), or 10^−9, 10^−8, 10^−7, 10^−6 M of a chicken II GnRH analog (SEQ ID NO: 2), leaving five control chambers. The eluted medium was collected at thirty minute intervals, starting one hour prior to the addition of GnRH analogs and throughout five hours of treatment. hCG released into the effluent media, as well as the production of GnRH, were measured using sensitive and specific radioimmunoassays. The release of hCG at each time point was normalized to its zero treatment release and the release throughout the treatment period and its average release was compared for various treatment regimens. These studies were repeated using tissues from three different first trimester placentas. The results of this experiment are illustrated in FIG. 20.

[3] = system: baboon granulosa cells; test: Baboon granulosa cell culture, progesterone release; format: cell-based; conditions: chicken II analog 10^−9 to 10^−6 M; Buserelin 10^−7
Text: The biopotency of chicken II GnRH analogs (SEQ ID NO: 2) in the regulation of baboon ovarian function was studied. The effect of mammalian and chicken II GnRH analogs (SEQ ID NO: 2) on ovarian progesterone release was studied using granulosa cell cultures. The dose-related action of a stable analog of chicken II GnRH (SEQ ID NO: 2) on progesterone production was defined using baboon granulosa cell cultures. After a two hour basal study period, the medium was supplemented with either Buserilin (SEQ ID NO: 10) (10^−7) or a chicken II GnRH analog (SEQ ID NO: 2) (10^−9, 10^−8, 10^−7, 10^−6 M) leaving four control wells. […] This inhibition was sustained after 48 hours of treatment. […] In addition, the action of the analog on three different stromal and three different epithelial endometrial primary cell lines (after 3-5 passages) has been studied and PGE2 determined as indicated in FIG. 31.

[4] = molecular target: placental GnRH receptor; test: Mean
Text: Table printed on a drawing sheet, Fig. 1
The patent's description of the figure: FIG. 1. Placental Kds for Chicken II and Mammalian GnRH Analogs
First copying reader's note: Each column is one GnRH analog; the rows are Kd values in individual placentas, followed by the mean and SEM.
Where the first naming reader finds the target: passage: the affinity for the placental GnRH receptor was enhanced 2 fold

[5] = system: chorionic peptidase-1 (C-ase-1); test: C-ase-1 enzyme activity assay, competition for degradation of GnRH

CCNC(=O)[C@@H]1CCCN1C(=O)[C@H](CCCNC(=N)N)NC(=O)[C@H](CC(C)C)NC(=O)[C@@H](COC(C)(C)C)NC(=O)[C@H](Cc1ccc(O)cc1)NC(=O)[C@H](CO)NC(=O)[C@H](Cc1c[nH]c2ccccc12)NC(=O)[C@H](Cc1cnc[nH]1)NC(=O)[C@@H]1CCC(=O)N1 [Buserelin]
receptor activity/potency compared with GnRH ([1]; 125I-Buserelin, Example VI): twice as active
receptor binding potency compared with mammalian GnRH ([1]; Buserelin label, Example II): three-fold more potent
hCG response ([2]; 10^−7 M): small stimulation of hCG at early time points
average stimulation of hCG release, relative to control tissues ([2]; throughout five hours of perifusion): 150%
effect on progesterone release, in words [3]: without significant effect
Kd [4]: 579 ± 84 nM
degradation by / competition for C-ase-1, in words [5]: potent competitive inhibitors
degradation/competition relative to mammalian GnRH ([5]; Example III): one fourth the rate
Ki ([5]; competition for degradation of mammalian GnRH, Example III): 110 nM
